This note sets out measurements from publication PMC5369532, “NMR-filtered virtual screening leads to non-metal chelating metallo-β-lactamase inhibitors” (Chemical Science, 2016).

Structures are written as SMILES. “Also recorded” adds a separate entry of the source. Read-outs that look alike come from different tables or passages of the source.

One assay addresses T1, VIM-2 (Escherichia coli, UniProt Q5U7L7).
T1 construct: made in house; host or cells: Escherichia coli
The assay can be described thus: biochemical. It counts as biochemical. Particulars: for differences between the inhibitory activity with or without excess Zn(II): 0 μM, 1 μM and 100 μM Zn(II). Here is the method:
Except where noted, recombinant forms of NDM-1, VIM-2, SPM-1, IMP-1, and BcII MBLs were produced in Escherichia coli and assays were carried out as described previously10. The IC50 values of all the compounds for VIM-2 were determined using […]
concentrations (0 μM, 1 μM, and 100 μM, see Fig. S8). The selectivity profiles of […]
as described above. The inhibitory activities of these compounds against CphA (B2 […]
MBL; IMP, Imipenemase; NDM, New Delhi MBL; TEM-1: Temomeira-type 1 […]
b The enzyme concentrations of the purified proteins were determined by measuring Abs@280nm using a NanoDrop (ThermoFisher) spectrometer and calculated molar extinction coefficient for each sample; concentrations of diluted solutions used in the assay were calculated from the original concentration. […]
negative controls. These were tested in same assay conditions but at 2mM instead of 100uM compound concentration. […]

In a further assay the target is VIM-1 (Pseudomonas aeruginosa, UniProt A0A0F7KYQ8). The assay can be described thus: biochemical. Particulars: n ≥ 3.
In the next assay the target is apo-VIM-2 (Escherichia coli, UniProt Q5U7L7). The assay is classed as binding. The settings on record: 50 μM apo enzyme, 50 μM compound, 50 mM Tris-D11 pH 7.5. The method, then:
(§1) Except where noted, recombinant forms of NDM-1, VIM-2, SPM-1, IMP-1, and BcII MBLs were produced in Escherichia coli and assays were carried out as described […]
(§2) previously10. […]
(§3) Nuclear Magnetic Resonance (NMR) spectra were recorded using a Bruker AVIII 600 MHz NMR spectrometer equipped with a BB-19F/1H Prodigy N2 cryoprobe using 5 mm diameter NMR tubes (Norell). Typical experimental parameters for Carr-Purcell-Meiboom-Gill (CPMG) NMR spectroscopy were: total echo time, 40 ms; […]
(§4) The PROJECT-CPMG sequence
(§5) (90°x−[τ−180°y−τ−90°y−τ−180°y−τ]n−acq) was applied. 15 Water suppression was achieved by pre-saturation. Data were processed with Bruker 3.1 software. Prior to […]
(§6) Fourier transformation, data were multiplied with an exponential function with 0.5 Hz […]
(§7) line broadening. […]

For a further assay, the target named is T2, di-Zn(II) VIM-2 (Escherichia coli, UniProt Q5U7L7).
T2 construct: made in house
The assay is classed as binding. The settings on record: 50 μM enzyme, 50 μM Zn(II), 50 μM compound, 50 mM Tris-D11 pH 7.5. Here is the method:
as §1, §2, §3, §4, §5, §6, §7

The mark [1] stands for this setting: FC-5 based assay, n ≥ 3, read-out: IC50 (VIM-2).
The mark [2] stands for this setting: FC-5 based assay, n ≥ 3, read-out: pIC50 (VIM-2) (converted).

Consider `O=C(O)c1cccc2c1C(=O)N(Cc1ccccc1F)C2` [Compound 24], for which the IC50 on VIM-2 (setting [1]) is 47.1 µM; against VIM-1, over 400 µM.

`O=C(O)C(Cc1ccc(O)cc1)NC1CCS(=O)(=O)C1` (stereo not drawn) [Compound 14]: the figures for the IC50 at VIM-2 (setting [1]) and at VIM-2 (setting [2]) were 669 µM and 661 µM, respectively.

Take `COc1ccccc1N1Cc2cccc(C(=O)O)c2C1=O` [Compound 31]: the IC50 on VIM-2 (setting [1]) was 133 µM; against VIM-1, over 400 µM.

In the case of `CC(c1ccncc1)N1Cc2cccc(C(=O)O)c2C1=O` (stereo not drawn) [Compound 29], the IC50 on VIM-2 (setting [1]) was 229 µM; on VIM-1, over 400 µM.

`Cc1c/c(=N\c2ccccc2C(=O)O)n2ncnc2[nH]1` [Compound 8]: the IC50 on VIM-2 (setting [1]) was over 1600 µM.

With `Cc1ccc(-c2cn3nnc(C(=O)O)c3c(=O)[nH]2)cc1` [Compound 9], the IC50 on VIM-2 (setting [1]) is 439 µM.

For `O=C(O)c1cccc2c1C(=O)N(c1ccc(O)c(F)c1)C2` [Compound 35], the values for the IC50 on VIM-2 (setting [1]) and against VIM-1 were 7.7 µM and over 400 µM, respectively.

Turning to `O=C(O)c1cccc2c1C(=O)N(c1ccccc1)C2` [Compound 30], the values for the IC50 at VIM-2 (setting [1]) and on VIM-1 were 17.8 µM and over 400 µM, respectively.

As for `COCCCN1Cc2cccc(C(=O)O)c2C1=O` [Compound 40], the IC50 at VIM-2 (setting [1]) and at VIM-1 was over 400 µM throughout.

Take `O=C(O)CC1CC(c2ccc(F)cc2)=NO1` (stereo not drawn) [Compound 4]: on VIM-2 (setting [1]), the IC50 came to 557 µM.

Regarding `O=C(O)c1cccc2c1C(=O)N(Cc1cccnc1)C2` [Compound 21], the IC50 on VIM-2 (setting [1]) was 349 µM; at VIM-1, over 400 µM.

In the case of `CN(C)c1ccc(CN2Cc3cccc(C(=O)O)c3C2=O)cc1` [Compound 27], the IC50 was 176 µM on VIM-2 (setting [1]), 174 µM at VIM-2 (setting [2]) and over 400 µM against VIM-1.

Consider `O=C(O)c1cccc2c1C(=O)N(CC1CCCO1)C2` (stereo not drawn) [Compound 38], for which the IC50 on VIM-2 (setting [1]) and against VIM-1 was over 400 µM each time.

Take `O=C(O)C1CC(c2ccccc2F)=NO1` (stereo not drawn) [Compound 2]: the IC50 on VIM-2 (setting [1]) is 993 µM.

For `COc1cc(CN2Cc3cccc(C(=O)O)c3C2=O)cc(OC)c1OC` [Compound 26], the IC50 on VIM-2 (setting [1]) and on VIM-1 was over 400 µM in each case.

As for `O=C(O)CCC(NS(=O)(=O)c1ccccc1)C(=O)O` (stereo not drawn) [Compound 11], the IC50 on VIM-2 (IC50 (VIM-2)) was 1110 µM; against VIM-2 (pIC50 (VIM-2)), 1100 µM.

In the case of `Cc1oc2c(c1C(=O)O)C(=O)CC(c1ccccc1)C2` (stereo not drawn) [Compound 10], the IC50 on VIM-2 (setting [1]) is over 1600 µM.

With `O=C(O)c1cccc2c1C(=O)N(Cc1cccs1)C2` [Compound 36], the results for the IC50 on VIM-2 (setting [1]) and against VIM-1 were 153 µM and over 400 µM, respectively.

`NC(=S)N/N=C1\C(=O)Nc2c(C(=O)O)cccc21` [Compound 7]: the “differences between the inhibitory activity with or without excess Zn(II)” value at VIM-2 is given as “no obvious differences”. Besides, at VIM-2 (setting [1]), the IC50 amounted to 199 µM. Besides, at apo-VIM-2, the “binding to apo-VIM-2 by 1H CPMG NMR” value is on record as “binding”. Also, the “binding to di-Zn(II) VIM-2 by 1H CPMG NMR” value on di-Zn(II) VIM-2 was “binding; also recorded: binds”.

For `C=CCC1c2cccc(C(=O)O)c2C(=O)N1c1cccc(OC)c1` (stereo not drawn) [Compound 42], the IC50 on VIM-2 (setting [1]) is 20.3 µM; on VIM-1 it was over 400 µM.

As to `CC(c1ccccc1)N1Cc2cccc(C(=O)O)c2C1=O` (stereo not drawn) [Compound 28], the results for the IC50 on VIM-2 (setting [1]), on VIM-2 (setting [2]) and against VIM-1 were 168 µM, 166 µM and over 400 µM, respectively.

For the compound `NC(=O)N/N=C/c1cccc(C(=O)O)c1O` [Compound 3], at VIM-2 (setting [1]), the IC50 is over 1600 µM.

Turning to `Cc1cc(N/N=C/c2ccc(O)c(C(=O)O)c2)nc(-c2ccccc2O)n1` [Compound 20], the “differences between the inhibitory activity with or without excess Zn(II)” value on VIM-2 is “no obvious differences”. For the same compound, the IC50 on VIM-2 (setting [1]) was under 400 µM.

Turning to `O=C(O)c1cccc2c1C(=O)N(Cc1ccc(F)cc1)C2` [Compound 23], the IC50 at VIM-2 (setting [1]) was 250 µM; against VIM-1, over 400 µM.

Regarding `CC(=O)Nc1ccc(S(=O)(=O)N2CCCC2C(=O)O)cc1` (stereo not drawn) [Compound 15], the IC50 at VIM-2 (setting [1]) is over 1600 µM.

On to `CN(C)Cc1ccc(N2Cc3cccc(C(=O)O)c3C2=O)cc1` [Compound 34], for which the IC50 was 60.3 µM on VIM-2 (setting [1]) and over 400 µM against VIM-1.

Consider `O=C(O)/C=C/C(=O)c1ccc(O)cc1` [Compound 1], for which the IC50 against VIM-2 (IC50 (VIM-2)) was determined as 637 µM.

In the case of `O=C(O)c1cccc2c1C(=O)N(c1ccccc1Cl)C2` [Compound 33], the IC50 is 74 µM on VIM-2 (setting [1]) and over 400 µM against VIM-1.

`O=C(O)c1cccc2c1C(=O)N(Cc1ccncc1)C2` [Compound 22]: the IC50 on VIM-2 (setting [1]) and against VIM-1 was over 400 µM each time.

In the case of `O=C(O)c1cccc2c1C(=O)N(CCc1ccccc1)C2` [Compound 39], the IC50 at VIM-2 (setting [1]) is 71.9 µM; against VIM-1, over 400 µM.

For `COc1ccc(CN2Cc3cccc(C(=O)O)c3C2=O)cc1OC` [Compound 25], the IC50 was 320 µM on VIM-2 (setting [1]), 316 µM on VIM-2 (setting [2]) and over 400 µM against VIM-1.

As for `C[C@H](CS)C(=O)N1CCC[C@H]1C(=O)O` [L-Captopril, reference compound], the “binding to apo-VIM-2 by 1H CPMG NMR” value at apo-VIM-2 was “very weak binding; also recorded: very weakly”. The “binding to di-Zn(II) VIM-2 by 1H CPMG NMR” value on di-Zn(II) VIM-2 is recorded as “strong binding; also recorded: binds strongly”.

Regarding `C=CCC1c2cccc(C(=O)O)c2C(=O)N1c1ccc(F)cc1` (stereo not drawn) [Compound 41], the IC50 was 24.6 µM on VIM-2 (setting [1]) and over 400 µM at VIM-1.

As to `COc1cccc(N2Cc3cccc(C(=O)O)c3C2=O)c1` [Compound 32], the IC50 was 39.3 µM at VIM-2 (setting [1]) and over 400 µM on VIM-1.

For the compound `CNCc1ccc(-c2cccc(C(=O)O)c2)o1` [Compound 5], the IC50 at VIM-2 (setting [1]) was over 1600 µM.

For `O=C(O)c1cccc(/C=N/N=C/c2cccc(C(=O)O)c2O)c1O` [Compound 18], the IC50 at VIM-2 (setting [1]) was determined as 117 µM. Further, on apo-VIM-2, the “binding to apo-VIM-2 by 1H CPMG NMR” value is reported as “binding; also recorded: binds”. Moreover, the “binding to di-Zn(II) VIM-2 by 1H CPMG NMR” value on di-Zn(II) VIM-2 is recorded as “binding; also recorded: binds”.

Consider `C=CCC1c2cccc(C(=O)OC)c2C(=O)N1c1ccccc1` (stereo not drawn) [Compound 43], for which the “inhibitory activity against VIM-2 (in words)” value on VIM-2 is “much lower inhibitory potency”. For the same compound, the IC50 at VIM-2 (setting [1]) and against VIM-1 was over 400 µM in each case.

`O=C(Cc1ccc(Cl)cc1)c1ccc(O)cc1O` [Compound 6]: on VIM-2, the “differences between the inhibitory activity with or without excess Zn(II)” value is recorded as “no obvious differences”. The IC50 on VIM-2 (setting [1]) worked out at 111 µM. The “binding to apo-VIM-2 by 1H CPMG NMR” value at apo-VIM-2 is “strong binding; also recorded: binds”. On di-Zn(II) VIM-2, the “binding to di-Zn(II) VIM-2 by 1H CPMG NMR” value was “strong binding; also recorded: strong binder”.

Turning to `O=C(O)c1cccc2c1C(=O)N(C1CCCC1)C2` [Compound 37], the IC50 on VIM-2 (setting [1]) was 68.1 µM; against VIM-1, over 400 µM.
